Measured values as given in patent publication US4888287A, “Rapid differentiation of fungi from bacteria using polyene antibiotics” (Eastman Kodak Company, priority 1986, dated 1989).

What was measured:
E. coli = experiment: Inhibition of RIND XXXV reduction by E. coli, microtitration plate, fluorescence (Example 2, Table III); assay type: cell-based, Escherichia coli (ATCC 25922); details: Escherichia coli, 0.5 h, E. coli (gram -), 37° C., 30 min, read-out: Corrected Percent Inhibition
Procedure: (§1) gram-negative microorganism Escherichia coli (ATCC 25922), gram-positive microorganism Staphylococcus aureus (ATCC 25923), and Candida albicans yeast cells (ATCC 14053), brain heart infusion broth (BHI) and Sabaroud's dextrose broth (SAB) from Difco Laboratories (Detroit, Michigan, U.S.A.), and Aspergillus flavus (ATCC 20047), a mold from American Type Culture Collection (Rockville, Maryland, U.S.A.).
(§2) E. coli and S. aureus were grown overnight in BHI broth at 37° C. C. albicans and A. flavus were grown overnight at 25° C. in SAB broth with agitation. The cells were harvested by centrifugation, washed and resuspended in 0.05 molar N-2-hydroxyethylpiperazine-N'-2-ethanesulfonic acid (HEPES) buffer (pH 7.8).
(§3) Dispersions containing RIND compounds were prepared by dissolving, for example, RIND VII from Table I above in N,N-dimethylformamide (DMF) at 16 mg compound per ml of solvent. An aliquot (250 μl) of the resulting solution was added to 500 μl of TRITON X-100 surfactant. This mixture was then added dropwise with stirring to 25 ml of 0.05 molar HEPES buffer. A solution containing a water-compatible RIND compound (for example, RIND XXXV) was prepared by dissolving the compound in N,N-dimethylformamide which had been acidified with 0.1% sulfuric acid (16 mg RIND compound per ml of solvent).
(§4) A composition was prepared from the following components: 100 μl RIND XXXV solution (16 mg RIND compound per ml of acidified N,N-dimethylformamide), 200 μl glucose solution (10% in water), 200 μl trimethyl-1,4-benzoquinone ETA solution (1.5 mg/ml methanol) and 10 ml HEPES buffer.
(§5) Test solutions were prepared using the following reagents: 50 μl HEPES buffer, 50 μl filipin polyene antibiotic (12.5 mg/ml dimethylsulfoxide)(serial dilutions of buffer and antibiotic solutions were performed to obtain various antibiotic concentrations), 50 μl of the appropriate cell suspensions, that is, E. coli (about 10^8 cells/ml), S. aureus (about 10^8 cells/ml), C. albicans (about 10^7 cells/ml) and A. flavus, and […] of the RIND composition described above.
(§6) Control solutions were prepared as described in Example 1. Relative fluorescence was measured using a Dynatech MICROFLUOR Reader (Dynatech Laboratories, Alexandria, Virginia) modified to read at excitation 540 nm and emission 620 nm, at zero time and after incubation at 37° C. for 30 minutes. The change in relative fluorescence was then determined as the difference of the two values.

A. flavus [1] = experiment: Inhibition of RIND XXXV reduction by A. flavus (mold), microtitration plate, fluorescence (Example 2, Table III); assay type: cell-based, Aspergillus flavus (ATCC 20047); details: Aspergillus flavus, 0.5 h, 37° C., 30 min, read-out: Corrected Percent Inhibition
Procedure: as §1, §2, §3, §4, §5, §6

S. aureus = experiment: Inhibition of MTT tetrazolium salt reduction by S. aureus, microtitration plate (Example 3, Table IV); assay type: cell-based, Staphylococcus aureus (ATCC 25923); details: Staphylococcus aureus, 0.5 h, S. aureus (gram +), 540 nm, 37° C., 30 min, read-out: Corrected Percent Inhibition
Procedure: as §1, §2
(§7) The differentiations of yeast and mold from bacteria were carried out in microtitration plates. The cell suspensions used were like those described in Example 2. The reducible compound used was 3-(4,5-dimethyl-2-thiazolyl)-2,5-diphenyl-2H-tetrazolium bromide (MTT). A composition containing MTT was prepared with the following components: 200 μl MTT solution (5 mg/ml methanol), 200 μl glucose solution (10% glucose in water), 200 μl trimethyl-1,4-benzoquinone ETA and 12 ml of HEPES buffer (0.05 molar, pH 7.8).
as §5, with “components:” for “reagents:”, “suspension, i.e.” for “suspensions, that is,”, “MTT” for “RIND”, “noted” for “described”, “above. Cell Controls contained all reagents except the antibiotic. Background was measured with buffer. Solution Controls contained all reagents except cells.” for “above.”
(§8) Optical density measurements were made at 540 nm using a commercially available spectrophotometer, and the change in optical density (ΔOD) was determined after 30 minutes at 37° C. […] It is apparent that the concentration effective for differentiation of yeast is different than for mold. However, it is well within the skill of a worker in the art to determine the appropriate concentration for a given test.

A. flavus [2] = experiment: Inhibition of MTT tetrazolium salt reduction by A. flavus (mold), microtitration plate (Example 3, Table IV); assay type: cell-based, Aspergillus flavus (ATCC 20047); details: Aspergillus flavus, 0.5 h, 540 nm, 37° C., 30 min, read-out: Corrected Percent Inhibition
Procedure: as §1, §2, §7
as §5, with “components:” for “reagents:”, “suspension, i.e.” for “suspensions, that is,”, “MTT” for “RIND”, “noted” for “described”, “above. Cell Controls contained all reagents except the antibiotic. Background was measured with buffer. Solution Controls contained all reagents except cells.” for “above.”
as §8

C. albicans = experiment: Inhibition of RIND XXXV reduction by C. albicans, dry analytical element (Example 4, Table V); assay type: cell-based, Candida albicans (ATCC 14053); details: C. albicans (yeast), 37° C., 30 min
Procedure: as §1, §2
Dispersions containing RIND compounds were prepared by dissolving, for example, RIND VII from Table I above in N,N-dimethylformamide (DMF) at 16 mg compound per ml of solvent. An aliquot (250 μl) of the resulting solution was added to 500 μl of TRITON X-100 surfactant. […]
A standard paper punch was used to cut circular elements (about 0.6 cm in diameter) from the dried strips. […] Buffer solution was applied to separate elements for background readings.
Relative fluorescence (excitation at 540 nm and emission at 620 nm) was measured using a Dynatech MICROFLUOR reader at zero time and after 30 minutes incubation at 37° C., and the change in relative fluorescence was determined.

CCCCC[C@@H](O)[C@H]1C(=O)O[C@H](C)[C@@H](O)/C=C/C=C/C=C/C=C/C=C(\C)[C@@H](O)C[C@H](O)C[C@H](O)C[C@H](O)C[C@H](O)C[C@H](O)C[C@@H]1O [Filipin, filipin]
inhibition at 260 µg/mL (E. coli; 0.26 mg/ml): 0% | inhibition at 520 µg/mL (E. coli; 0.52 mg/ml): 0% | inhibition at 1040 µg/mL (E. coli; 1.04 mg/ml): 2% | inhibition at 2080 µg/mL (E. coli; 2.08 mg/ml): 17.6% | inhibition at 260 µg/mL (A. flavus [1]; 0.26 mg/ml): 31.9% | inhibition at 520 µg/mL (A. flavus [1]; 0.52 mg/ml): 42.5% | inhibition at 1040 µg/mL (A. flavus [1]; 1.04 mg/ml): 49.8% | inhibition at 2080 µg/mL (A. flavus [1]; 2.08 mg/ml): 64.9% | inhibition at 260 µg/mL (S. aureus; 0.26 mg/ml): 0% | inhibition at 520 µg/mL (S. aureus; 0.52 mg/ml): 0% | inhibition at 1040 µg/mL (S. aureus; 1.04 mg/ml): 0% | inhibition at 2080 µg/mL (S. aureus; 2.08 mg/ml): 0% | inhibition at 260 µg/mL (A. flavus [2]; 0.26 mg/ml): 0% | inhibition at 520 µg/mL (A. flavus [2]; 0.52 mg/ml): 10.3% | inhibition at 1040 µg/mL (A. flavus [2]; 1.04 mg/ml): 19% | inhibition at 2080 µg/mL (A. flavus [2]; 2.08 mg/ml): 98.3% | Corrected Percent Inhibition (C. albicans): 76%
